# Literature values in patent US20250356984A1 (priority 2022, published 2025).
# Conditions: in vivo
structure (smiles),measurement,value
CC(C)c1cccc(C(C)C)c1O [propofol],time until target blood concentration is achieved,under a minute
